{"source": "patent US20200024278A1", "about": "“COMPOSITION COMPRISING ANTIBIOTIC COMPOUND AND AN HETEROCYCLIC COMPOUND AND THEIR USE IN PREVENTING OR TREATING BACTERIAL INFECTIONS” (MUTABILIS, priority 2016, published 2020)", "assay_in_all_cases": "MIC, broth microdilution (CLSI), substance alone or ATB combined with compound at 4 or 8 μg/mL", "key": {"[1]": {"test_system": "PAE UFR48", "assay_type": "cell-based, P. aeruginosa", "details": "for MIC ATB combined with compound / MIC ATB combined with Example compound: compound @8 μg/ml, PAE UFR48", "summary_of_the_method": "(§1)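 Each strain received 5·10^5 CFU/mL of log-phase cells in ca-MHB over DMSO-spotted compound or compound-antibiotic combinations. After 16-20 h at 35° C, growth was scored visually.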"}, "[2]": {"test_system": "PAE UFR90", "assay_type": "cell-based, P. aeruginosa", "details": "for MIC ATB combined with compound / MIC ATB combined with Example compound: compound @8 μg/ml, PAE UFR90", "summary_of_the_method": "as §1"}, "[3]": {"test_system": "PAE 105250", "assay_type": "cell-based, P. aeruginosa", "details": "for MIC ATB combined with compound / MIC ATB combined with Example compound: compound @8 μg/ml, PAE 105250", "summary_of_the_method": "as §1"}, "[4]": {"test_system": "SAU 29213", "assay_type": "cell-based, S. aureus", "details": "for MIC ATB combined with compound / MIC ATB combined with Example compound: compound @8 μg/ml, SAU 29213", "summary_of_the_method": "as §1"}, "[5]": {"test_system": "ECO 190317", "assay_type": "cell-based, E. coli", "summary_of_the_method": "as §1"}, "[6]": {"test_system": "ECO UFR39", "assay_type": "cell-based, E. coli", "details": "for MIC ATB combined with Example compound: compound @8 μg/ml, ECO UFR39", "summary_of_the_method": "as §1"}, "[7]": {"test_system": "KPN BAA-1898", "assay_type": "cell-based, K. pneumoniae", "procedure": "(§2) Compounds of the present invention were assessed against genotyped bacterial strains alone or in combination with an antibacterial. In the assays, MICs of said compounds or combination of antibiotics with fixed concentrations of said compounds (4 or 8 μg/mL) were determined by the broth microdilution method according to the Clinical Laboratory Standards Institute (CLSI-M7-A7). Briefly, compounds alone according to the invention were prepared in DMSO and spotted (2 μL each) on sterile polystyrene plates (Corning, 3788). Combinations of compounds and antibiotics dilutions were prepared in DMSO and spotted (1 μL each) on sterile polystyrene plates (Corning, 3788). Log phase bacterial suspensions were adjusted to a final density of 5·10^5 CFU/mL in cation-adjusted Mueller-Hinton broth (ca-MHB; Becton-Dickinson and Company) and added to each well (98 μL). Assays including Fosfomycin were supplemented with 25 μg/ml of Glucose-6-phosphate. Microplates were incubated for 16-20 h at 35° C. in ambient air. The MIC of the compounds was defined as the lowest concentration of said compounds that prevented bacterial growth as read by visual inspection. The MIC of ATB at each compound concentration was defined as the lowest concentration of ATB that prevented bacterial growth as read by visual inspection."}, "[8]": {"test_system": "KPN UFR42", "assay_type": "cell-based, K. pneumoniae", "details": "for MIC ATB combined with Example compound: compound @8 μg/ml, KPN UFR42", "procedure": "as §2"}, "[9]": {"test_system": "KPN 6299", "assay_type": "cell-based, K. pneumoniae", "details": "MIC of CIP, compound @8 μg/ml", "procedure": "as §2"}, "[10]": {"test_system": "SPN 49619", "assay_type": "cell-based, S. pneumoniae", "details": "for MIC ATB combined with compound / MIC ATB combined with Example compound: compound @8 μg/ml, SPN 49619", "summary_of_the_method": "as §1"}, "[11]": {"test_system": "ECL P99", "assay_type": "cell-based, E. cloacae", "summary_of_the_method": "as §1"}}, "data": [{"smiles": "O=C1N2CC(c3ncco3)=CC(C2)N1OC(F)(F)C(=O)O", "note": "(stereo not shown) [Example 7]", "values": [{"measurement": "MIC ATB combined with compound", "setting": "[1]; ATB ATM", "value": ">32", "unit": "µg/mL"}, {"measurement": "MIC ATB combined with compound", "setting": "[1]; ATB FEP", "value": 32, "unit": "µg/mL"}, {"measurement": "MIC ATB combined with compound", "setting": "[1]; ATB FOS", "value": 32, "unit": "µg/mL"}, {"measurement": "MIC ATB combined with compound", "setting": "[1]; ATB MEM", "value": 4, "unit": "µg/mL"}, {"measurement": "MIC ATB combined with compound", "setting": "[1]; ATB PIP", "value": ">32", "unit": "µg/mL"}, {"measurement": "MIC ATB combined with Example compound", "setting": "[1]; MIC of CIP", "value": 4, "unit": "µg/mL"}, {"measurement": "MIC ATB combined with Example compound", "setting": "[1]; MIC of CPO", "value": ">32", "unit": "µg/mL"}, {"measurement": "MIC", "setting": "[1]; Pseudomonas aeruginosa", "value": "> 32", "unit": "µg/mL"}, {"measurement": "MIC ATB combined with compound", "setting": "[2]; ATB ATM", "value": 16, "unit": "µg/mL"}, {"measurement": "MIC ATB combined with compound", "setting": "[2]; ATB FEP", "value": 4, "unit": "µg/mL"}, {"measurement": "MIC ATB combined with compound", "setting": "[2]; ATB FOS", "value": 8, "unit": "µg/mL"}, {"measurement": "MIC ATB combined with compound", "setting": "[2]; ATB MEM", "value": 2, "unit": "µg/mL"}, {"measurement": "MIC ATB combined with compound", "setting": "[2]; ATB PIP", "value": ">32", "unit": "µg/mL"}, {"measurement": "MIC ATB combined with Example compound", "setting": "[2]; MIC of CIP", "value": 1, "unit": "µg/mL"}, {"measurement": "MIC ATB combined with Example compound", "setting": "[2]; MIC of CPO", "value": 16, "unit": "µg/mL"}, {"measurement": "MIC", "setting": "[2]; Pseudomonas aeruginosa", "value": "> 32", "unit": "µg/mL"}, {"measurement": "MIC ATB combined with compound", "setting": "[3]; ATB ATM", "value": 8, "unit": "µg/mL"}, {"measurement": "MIC ATB combined with compound", "setting": "[3]; ATB FEP", "value": 8, "unit": "µg/mL"}, {"measurement": "MIC ATB combined with compound", "setting": "[3]; ATB FOS", "value": ">128", "unit": "µg/mL"}, {"measurement": "MIC ATB combined with compound", "setting": "[3]; ATB MEM", "value": 4, "unit": "µg/mL"}, {"measurement": "MIC ATB combined with compound", "setting": "[3]; ATB PIP", "value": ">32", "unit": "µg/mL"}, {"measurement": "MIC ATB combined with Example compound", "setting": "[3]; MIC of CIP", "value": 0.125, "unit": "µg/mL"}, {"measurement": "MIC ATB combined with Example compound", "setting": "[3]; MIC of CPO", "value": 16, "unit": "µg/mL"}, {"measurement": "MIC", "setting": "[3]; Pseudomonas aeruginosa", "value": "> 32", "unit": "µg/mL"}, {"measurement": "MIC ATB combined with compound", "setting": "[4]; ATB ATM", "value": ">32", "unit": "µg/mL"}, {"measurement": "MIC ATB combined with compound", "setting": "[4]; ATB FEP", "value": 1, "unit": "µg/mL"}, {"measurement": "MIC ATB combined with compound", "setting": "[4]; ATB FOS", "value": 0.5, "unit": "µg/mL"}, {"measurement": "MIC ATB combined with compound", "setting": "[4]; ATB MEM", "value": "<=0.031 μg/mL"}, {"measurement": "MIC ATB combined with compound", "setting": "[4]; ATB PIP", "value": 1, "unit": "µg/mL"}, {"measurement": "MIC ATB combined with Example compound", "setting": "[4]; MIC of CIP", "value": 0.25, "unit": "µg/mL"}, {"measurement": "MIC ATB combined with Example compound", "setting": "[4]; MIC of CLI", "value": 0.031, "unit": "µg/mL"}, {"measurement": "MIC ATB combined with Example compound", "setting": "[4]; MIC of CPO", "value": 0.25, "unit": "µg/mL"}, {"measurement": "MIC ATB combined with Example compound", "setting": "[4]; MIC of DAP", "value": 1, "unit": "µg/mL"}, {"measurement": "MIC ATB combined with Example compound", "setting": "[4]; MIC of ERY", "value": 0.25, "unit": "µg/mL"}, {"measurement": "MIC ATB combined with Example compound", "setting": "[4]; MIC of LZD", "value": 1, "unit": "µg/mL"}, {"measurement": "MIC ATB combined with Example compound", "setting": "[4]; MIC of RIF", "value": 0.0078, "unit": "µg/mL"}, {"measurement": "MIC ATB combined with Example compound", "setting": "[4]; MIC of SYN", "value": 0.25, "unit": "µg/mL"}, {"measurement": "MIC ATB combined with Example compound", "setting": "[4]; MIC of VAN", "value": 1, "unit": "µg/mL"}, {"measurement": "MIC", "setting": "[4]; Staphylococcus aureus, MSSA", "value": 32, "unit": "µg/mL"}, {"measurement": "MIC", "setting": "[5]; Escherichia coli", "value": 4, "unit": "µg/mL"}, {"measurement": "MIC ATB combined with Example compound", "setting": "[5]; MIC of CIP, compound @8 μg/ml, ECO 190317", "value": "<0.031", "unit": "µg/mL"}, {"measurement": "MIC", "setting": "[6]; Escherichia coli", "value": 8, "unit": "µg/mL"}, {"measurement": "MIC ATB combined with Example compound", "setting": "[6]; MIC of CIP", "value": "<0.031", "unit": "µg/mL"}, {"measurement": "MIC ATB combined with Example compound", "setting": "[6]; MIC of CPO", "value": "<0.031", "unit": "µg/mL"}, {"measurement": "MIC", "setting": "[7]; Klebsiella pneumoniae, BAA1898", "value": 8, "unit": "µg/mL"}, {"measurement": "MIC ATB combined with Example compound", "setting": "[7]; MIC of CIP, compound @8 μg/ml, KPN BAA-1898", "value": 1, "unit": "µg/mL"}, {"measurement": "MIC", "setting": "[8]; Klebsiella pneumoniae", "value": 16, "unit": "µg/mL"}, {"measurement": "MIC ATB combined with Example compound", "setting": "[8]; MIC of CIP", "value": ">32", "unit": "µg/mL"}, {"measurement": "MIC ATB combined with Example compound", "setting": "[8]; MIC of CPO", "value": "<=0.031 μg/mL"}, {"measurement": "MIC ATB combined with Example compound", "setting": "[9]", "value": 8, "unit": "µg/mL"}, {"measurement": "MIC ATB combined with compound", "setting": "[10]; ATB ATM", "value": ">32", "unit": "µg/mL"}, {"measurement": "MIC ATB combined with compound", "setting": "[10]; ATB FEP", "value": "<=0.031 μg/mL"}, {"measurement": "MIC ATB combined with compound", "setting": "[10]; ATB FOS", "value": 8, "unit": "µg/mL"}, {"measurement": "MIC ATB combined with compound", "setting": "[10]; ATB MEM", "value": "<=0.031 μg/mL"}, {"measurement": "MIC ATB combined with compound", "setting": "[10]; ATB PIP", "value": 0.5, "unit": "µg/mL"}, {"measurement": "MIC ATB combined with Example compound", "setting": "[10]; MIC of CIP", "value": 0.5, "unit": "µg/mL"}, {"measurement": "MIC ATB combined with Example compound", "setting": "[10]; MIC of CLI", "value": 0.125, "unit": "µg/mL"}, {"measurement": "MIC ATB combined with Example compound", "setting": "[10]; MIC of CPO", "value": "<=0.031 μg/mL"}, {"measurement": "MIC ATB combined with Example compound", "setting": "[10]; MIC of DAP", "value": 0.125, "unit": "µg/mL"}, {"measurement": "MIC ATB combined with Example compound", "setting": "[10]; MIC of ERY", "value": 0.125, "unit": "µg/mL"}, {"measurement": "MIC ATB combined with Example compound", "setting": "[10]; MIC of LZD", "value": 1, "unit": "µg/mL"}, {"measurement": "MIC ATB combined with Example compound", "setting": "[10]; MIC of RIF", "value": 0.0078, "unit": "µg/mL"}, {"measurement": "MIC ATB combined with Example compound", "setting": "[10]; MIC of SYN", "value": 0.5, "unit": "µg/mL"}, {"measurement": "MIC ATB combined with Example compound", "setting": "[10]; MIC of VAN", "value": 0.125, "unit": "µg/mL"}, {"measurement": "MIC", "setting": "[10]; Streptococcus pneumoniae", "value": 16, "unit": "µg/mL"}, {"measurement": "MIC", "setting": "[11]; Enterobacter cloacae", "value": 8, "unit": "µg/mL"}, {"measurement": "MIC ATB combined with Example compound", "setting": "[11]; MIC of CIP, compound @8 μg/ml, ECL P99", "value": "<0.031", "unit": "µg/mL"}]}]}
